“Also recorded” adds a separate entry of the source. Like-named read-outs stand apart in the source and are kept apart here.
Experiments:
[1] = system: SARS-CoV-2; conditions: Calu-3 cells exposed to SARS-CoV-2; cited from earlier work
[2] = system: VeroE6 cells; test: Cytotoxicity, WST-8 assay (Cell Counting Kit-8); type: cell-based; conditions: concentrations up to 100 μM
[3] = Cytotoxicity, WST-8 assay (Cell Counting Kit-8); type: cell-based; conditions: African green monkey, VeroE6 cells
[4] = system: SARS-CoV-2^WK-521; test: Immunocytochemistry, low-stringency assay (VeroE6 cells and SARS-CoV-2^WK-521); type: cell-based; conditions: VeroE6 cells; for Block of SARS-CoV-2^WK-521 infection (immunocytochemistry): overall statement over the concentrations tested
[5] = system: SARS-CoV-2^WK-521; test: Immunocytochemistry, high-stringency assay (VeroE6^TMPRSS2 cells and SARS-CoV-2^WK-521); type: cell-based; conditions: VeroE6^TMPRSS2 cells; for Observation by immunocytochemistry: 100 μM; for Antiviral effect seen by immunocytochemistry: 1 and 10 μM; for Block of infectivity and cytopathic effect of SARS-CoV-2^WK-521 (immunocytochemistry): overall statement, Fig. 3B
[6] = system: SARS-CoV-2^WK-521; test: Antiviral assay: viral RNA in culture supernatants by RNA-qPCR (RT-qPCR), VeroE6 cells; type: cell-based; conditions: for Selectivity index: ratio of CC50 to EC50, VeroE6 cells
[7] = system: SARS-CoV-2^WK-521; conditions: VeroE6 cells; 100 μM; 3 days
[8] = biological target: SARS-CoV-2 M^pro (Severe acute respiratory syndrome coronavirus 2, UniProt P0DTD1); test: M^pro molecular weight analysis with HPLC/MS (covalent binding); conditions: 100 μM compound, 37°C, 30 min
[9] = biological target: HIV-1 protease (Human immunodeficiency virus type 1 group M subtype B, UniProt P04585); test: Thermal stability of HIV-1 protease by differential scanning fluorimetry (control); type: binding; conditions: HIV-1 protease 5 μM + 5 μM compound (1:1); protease alone 54.78°C
[10] = Severe acute respiratory syndrome coronavirus 2, Vero C1008, read-out: EC50 ±SD

Structure (SMILES) | CC50 at 3 days [3] | Block of SARS-CoV-2^WK-521 infection (immunocytochemistry) [4] | Observation by immunocytochemistry [5] | Block of infectivity and cytopathic effect of SARS-CoV-2^WK-521 (immunocytochemistry) [5] | EC50 [6, 10] | Selectivity index [6] | Observation by immunocytochemistry ([4]; 10 μM) | Observation by immunocytochemistry ([4]; 100 μM) | further results
N=C(N)c1ccc2cc(OC(=O)c3ccc(N=C(N)N)cc3)ccc2c1 [Nafamostat, nafamostat] | > 100 µM | inactive against the virus | – | – | – | – | – | – | EC50 [1]: 0.005 µM; Cytotoxicity (in words) [2]: nontoxic at all concentrations tested; Cytotoxicity seen in immunocytochemistry [4]: did not exert significant toxicity; also recorded: not significantly cytotoxic; Block of SARS-CoV-2^WK-521 infection (immunocytochemistry) ([4]; listed as nafamostat): did not exert significant antiviral activity; also recorded: failed to block SARS-CoV-2 infection
Cc1c(O)cccc1C(=O)N[C@@H](CSc1ccccc1)[C@H](O)CN1C[C@H]2CCCC[C@H]2C[C@H]1C(=O)NC(C)(C)C [Nelfinavir, nelfinavir] | 53 ± 8 µM | failed to block SARS-CoV-2 infection | most of the cells were lost | failed to block the infection | 3.1 µM | 17 | – | – | Antiviral effect seen by immunocytochemistry [5]: no detectable antiviral activity
Cc1cccc(C)c1OCC(=O)N[C@@H](Cc1ccccc1)[C@@H](O)C[C@H](Cc1ccccc1)NC(=O)[C@H](C(C)C)N1CCCNC1=O [Lopinavir, lopinavir] | 51 ± 5 µM | failed to block SARS-CoV-2 infection | most of the cells were lost | failed to block the infection | 19 ± 8 µM | 2.7 | – | – | Antiviral effect seen by immunocytochemistry [5]: no detectable antiviral activity
CCN(CCO)CCCC(C)Nc1ccnc2cc(Cl)ccc12 (stereo not drawn) [Hydroxychloroquine, hydroxychloroquine] | > 100 µM | did not exert significant antiviral activity; also recorded: failed to block the infectivity | – | – | 5.1 ± 3.4 µM | >20 | slightly block infectivity | almost all the cells were shed from the wells; also recorded: virtually no cells were left | Cytotoxicity (in words) [2]: nontoxic at up to 100 μM
O=C(Oc1cncc(Cl)c1)c1cccc2[nH]ccc12 [GRL-0920] | > 100 µM | completely blocked the infectivity | essentially no infected cells seen | potently blocked; also recorded: completely blocked | 8.6 ± 2.8 µM | – | further suppression of viral replication | completely blocked; also recorded: complete | Protection of virus-exposed cells (light microscopy) [7]: appeared to be protected
CCN(CC)CCCC(C)Nc1ccnc2cc(Cl)ccc12 (stereo not drawn) [Chloroquine, chloroquine] | – | failed to block the infectivity | – | – | – | – | slightly block infectivity | almost all the cells were shed from the wells | Observation by immunocytochemistry ([4]; 100 μM, listed as chloroquine): almost all VeroE6 cells were lost
CC(=O)Oc1ccccc1C(=O)Nc1ncc([N+](=O)[O-])s1 [Nitazoxanide, nitazoxanide] | 88 ± 3 µM | did not block the infectivity | – | – | 31 ± 6 µM | 2.8 | – | only a few nuclei remained | Observation by immunocytochemistry ([4]; 1 and 10 μM): did not exert activity against the virus
CCC(CC)COC(=O)[C@H](C)N[P@](=O)(OC[C@H]1O[C@@](C#N)(c2ccc3c(N)ncnn23)[C@H](O)[C@@H]1O)Oc1ccccc1 [Remdesivir, remdesivir] | > 100 µM | significantly blocked SARS-CoV-2 infection but allowed viral breakthrough | essentially no infected cells seen | potently blocked; also recorded: permitted viral breakthrough | 1.2 ± 0.06 µM | >83 | further suppression of viral replication | nearly complete | Protection of virus-exposed cells (light microscopy) [7]: appeared to be protected
C=CCn1ccc2c(C(=O)Oc3cncc(Cl)c3)cccc21 [GRL-0820] | > 100 µM | permitted viral breakthrough | viral breakthrough had occurred | potently blocked; also recorded: permitted viral breakthrough | 23 ± 5 µM | >4.3 | – | – | Increase of the mass of M^pro [8]: 183.85 amu; Average mass of the major M^pro species with compound ([8]; TOF MS): 34,037.21; EC50 ([6]; Severe acute respiratory syndrome coronavirus 2, Vero C1008, read-out: Anti-SARS-CoV-2 EC50): 15 ± 18 µM
CC(C)CN(C[C@@H](O)[C@H](Cc1cc(F)cc(F)c1)NC(=O)O[C@H]1C2COC3OCC1C3C2)S(=O)(=O)c1ccc2nc(NC3CC3)sc2c1 (stereo partly drawn) [GRL-142] | – | – | – | – | – | – | – | – | Tm of HIV-1 protease [9]: 87.13 °C
NC(=O)c1nc(F)c[nH]c1=O [Favipiravir, favipiravir] | > 100 µM | failed to block SARS-CoV-2 infection | – | failed to block the infection | > 100 µM | – | – | – | Cytotoxicity (in words) [2]: nontoxic at all concentrations tested

— PMC7441487 (mBio, 2020)
